The values below come from PMC11796312, “Multifunctional, Fluorene‐Based Modulator of Cholinergic and GABAergic Neurotransmission as a Novel Drug Candidate for Palliative Treatment of Alzheimer's Disease” (Angewandte Chemie (International Ed. in English), 2024).

Data set [1] concerns the target serotonin transporter (SERT) (Homo sapiens, UniProt P31645). Put plainly: Interaction with serotonin transporter.
Data set [2] concerns mouse microglial cells (BV-2). Put plainly: Cell viability, PrestoBlue (immunotoxicity). In kind it is cell-based. As to conditions: Mus musculus, BV-2, 24 h. The protocol:
(§1) The mouse microglial cells (BV-2) were cultured using standard procedures. The cells were a generous gift from professor Bozena Kaminska-Kaczmarek from Laboratory of Molecular Neurobiology, Neurobiology Center, Nencki Institute of Experimental Biology, Polish Academy of Sciences, Warsaw, Poland. The cells were cultured in Dulbecco’s Modified Eagle’s Medium - high glucose, (DMEM, Glutamx ThermoFisher ) supplemented with 10% fetal bovine serum heat inactivated (ThermoFisher), with added 100 IU/ml penicillin (Sigma Aldrich) and 100 µg/ml streptomycin (Sigma Aldrich). […]
(§2) an area of 175 cm2 (Nunc), and incubated at 37◦C, 5% CO2. For the test of compounds with the BV-2 cells line, microglia cells were seeded on 96-well culture plate (Falcon) at a density of 2x10^4 cells per well in fresh medium. The cells were grown for 24 hours in the incubator (37°C, 5% CO2) before performing experiments. […]
(§3) Preparation of stock solutions of tested compounds
(§4) Stock solutions were prepared in the concentration of 10 mM for test and reference compounds. Minimum 1 mg of each tested compound was weighed and dissolved in appropriate volume of dimethyl sulfoxide. Serial dilutions were prepared in DMSO and then the diluted compounds were transferred to PBS. Before assays eventual precipitation or opalescence was checked. All experiments were performed in duplicates, in three independent experiments. Cell viability was measured after 24 hours of incubation with tested cell line.
(§5) Cell viability was evaluated using the Presto Blue reagent (Thermo Fisher), according to the manufacturer procedures. Following 24 hours of incubation with the tested molecule, PrestoBlue reagent was added to a microplate well in an amount equal to one tenth of the remaining medium volume. The resulting mixture was incubated for 15 minutes at 37°C, and the fluorescence intensity (EX 530; EM 580 nm) was measured in the plate reader POLARstar Omega, (BMG Labtech). The results (viability values) are provided as a percentage of live cells with respect to DMSO (control sample).
(§6) Viability values were calculated as a percentage of live cells with respect to the control sample (DMSO). The negative control was medium without cells. IC 50 was determined by […]
(§7) nonlinear regression analysis using GraphPad Prism 9.0 software. All values are expressed as […]
(§8) Table S10. The viability of cells. neurotoxicity immuntoxicity
(§9) The results (viability values) are provided as a percentage of live cells with respect to DMSO (control sample)
(§10) Table S11. The viability of cells.

A short description of data set [3]: Cell viability, PrestoBlue (immunotoxicity). The format is cell-based. To be noted: mouse, 24 h, read-out: viability, immuntoxicity X [%]. The protocol: as §1, §2, §3, §4, §5, §6, §7, §8, §9, §10

Where two headings read alike, the source gives them in different places.

serotonin transporter (SERT), sequence (P31645 whole entry, species assumed): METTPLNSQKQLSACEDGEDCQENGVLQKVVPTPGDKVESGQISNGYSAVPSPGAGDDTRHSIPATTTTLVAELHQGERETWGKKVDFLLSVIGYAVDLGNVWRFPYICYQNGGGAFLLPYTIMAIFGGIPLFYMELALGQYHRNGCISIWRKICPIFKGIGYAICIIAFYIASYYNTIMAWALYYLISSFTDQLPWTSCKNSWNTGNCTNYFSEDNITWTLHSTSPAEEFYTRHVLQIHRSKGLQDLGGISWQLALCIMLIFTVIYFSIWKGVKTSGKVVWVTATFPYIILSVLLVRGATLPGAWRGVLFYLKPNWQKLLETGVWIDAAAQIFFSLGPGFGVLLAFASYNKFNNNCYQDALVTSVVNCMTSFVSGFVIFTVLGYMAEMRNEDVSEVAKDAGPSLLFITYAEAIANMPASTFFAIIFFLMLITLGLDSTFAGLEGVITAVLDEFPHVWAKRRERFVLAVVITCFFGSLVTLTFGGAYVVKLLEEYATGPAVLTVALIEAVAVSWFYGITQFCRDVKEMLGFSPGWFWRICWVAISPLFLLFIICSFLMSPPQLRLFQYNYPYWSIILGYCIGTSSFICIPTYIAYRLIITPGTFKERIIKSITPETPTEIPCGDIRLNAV

As a reminder, the viability is a read-out of living cells in per cent, often relative to untreated cells. Turning to `O[C@H](CNCC1CC1)[C@H](Cc1ccccc1)NC1c2ccccc2-c2ccccc21` [Compound 6], in data set [1], the “interaction with SERT” value was “ruled out interactions”. The values for the IC50 in data set [2] (read-out: IMMUNOTOXICTY IC50) and in data set [2] (read-out: IMMUNOTOXICTY pIC (converted)) were 18.9 µM and 19.1 µM, respectively. The viability at 24 h, 0.1 µM in data set [3] (BV-2, 0.1 µM) amounted to 102%. Also, the viability at 24 h, 1 µM in data set [3] (BV-2, 1 µM) came to 103%. Further, in data set [3] (BV-2, 10 µM), the viability at 24 h, 10 µM stood at 94.8%. In addition, the viability at 24 h, 50 µM in data set [3] (BV-2, 50 µM) worked out at 2%. In addition, the viability at 24 h, 100 µM in data set [3] (BV-2, 100 µM, vs DMSO) was 1.3%.
